# Assays:
# Botrytis = assay: Combination with herbicides, Botrytis agar plate test; assay type: cell-based, Botrytis cinerea; settings: herbicide applied singly
# Candida japonica = settings: Matsueda et al.; cited from earlier work
# Bacillus subtilis = settings: Matsueda et al.; cited from earlier work
# Staphylococcus aureus = settings: Matsueda et al.; cited from earlier work
# E. coli = settings: Matsueda et al.; cited from earlier work
# certain microorganisms = settings: Matsueda et al. 1980; cited from earlier work
# Pseudomonas aeruginosa = settings: Matsueda et al.; cited from earlier work
# Trichophyton rubrum = assay: Effect of the fungicide on dermatophytes (agar incorporation); assay type: cell-based; settings: 120 h, pH 7.1, 25°, 5 days, read-out: Minimum Inhibitory Concentration, MIC
# Protocol: (§1) These were recent clinical isolates and were cultivated at 25° C. on agar containing the following ingredients in grams per liter:
# (§2) Mycelia from the 3 fungi were disintegrated with sterile glass beads in sterile water and 1 drop applied to the center petri dishes containing the same agar as above but to which was added Phaeoramularia fungicide. The fungicide was added at a concentration of from 0.5 μg/ml to 5 μg/ml of the eluate described under "Extraction of the active principle." Griseofulvin was used in comparison. Controls were prepared with the same agar but devoid of fungicide. Five (5) replicates were made for each test.
# T. mentagrophytes = assay: as above; assay type: cell-based; settings: Trichophyton mentagrophytes, 120 h, pH 7.1, 25°, 5 days, read-out: Minimum Inhibitory Concentration, MIC
# Protocol: as §1, §2
# Microsporum canis = assay: as above; assay type: cell-based; settings: 120 h, pH 7.1, 25°, 5 days, read-out: Minimum Inhibitory Concentration, MIC
# Protocol: as §1, §2
structure (smiles),measurement,setting,value
COc1nc(C)nc(NC(=O)NS(=O)(=O)c2ccccc2Cl)n1 [Chlorsulfuron],effect of herbicide on Botrytis,Botrytis,no effect
COc1c(CC(C)O)c2c3c(CC(C)O)c(OC)c(=O)c4c(O)cc5c(c6c(cc(O)c(c1=O)c62)OCO5)c43 (stereo not drawn) [cercosporin],inhibition of growth,Candida japonica,inhibit the growth
same,inhibition of growth,Bacillus subtilis,inhibit the growth
same,inhibition of growth,Staphylococcus aureus,inhibit the growth
same,inhibition of growth,E. coli,inhibit the growth
same,inhibitory effect on certain microorganisms,certain microorganisms,inhibitory effect
same,inhibition of growth,Pseudomonas aeruginosa,inhibit the growth
CCNc1nc(Cl)nc(NC(C)C)n1 [Atrazine],effect of herbicide on Botrytis,Botrytis,no effect
CCNc1nc(Cl)nc(NCC)n1 [Simazine],effect of herbicide on Botrytis,Botrytis,no effect
COC1=CC(=O)C[C@@H](C)[C@]12Oc1c(Cl)c(OC)cc(OC)c1C2=O [griseofulvin],MIC,Trichophyton rubrum,1.5 µg/mL
same,MIC,T. mentagrophytes,10 µg/mL
same,MIC,Microsporum canis,3 µg/mL
